Tests used:
Aurora kinase B [1] = molecular target: T1, Aurora kinase B (Homo sapiens, UniProt Q96GD4); assay: Inhibition of Aurora B kinase assessed as reduction in histone H3 phosphorylation in human HCT116 cells; assay type: cell-based, HCT-116
Aurora kinase B [2] = molecular target: T1, Aurora kinase B; assay: Binding affinity to Aurora B kinase catalytic domain by competitive binding assay
HCT-116 = assay: Antiproliferative activity against human HCT116 cells; assay type: functional, cell-based
Aurora kinase A = molecular target: T2, Aurora kinase A (Homo sapiens, UniProt O14965); assay: Binding affinity to Aurora A kinase catalytic domain by competitive binding assay
T2 sequence (O14965 whole entry): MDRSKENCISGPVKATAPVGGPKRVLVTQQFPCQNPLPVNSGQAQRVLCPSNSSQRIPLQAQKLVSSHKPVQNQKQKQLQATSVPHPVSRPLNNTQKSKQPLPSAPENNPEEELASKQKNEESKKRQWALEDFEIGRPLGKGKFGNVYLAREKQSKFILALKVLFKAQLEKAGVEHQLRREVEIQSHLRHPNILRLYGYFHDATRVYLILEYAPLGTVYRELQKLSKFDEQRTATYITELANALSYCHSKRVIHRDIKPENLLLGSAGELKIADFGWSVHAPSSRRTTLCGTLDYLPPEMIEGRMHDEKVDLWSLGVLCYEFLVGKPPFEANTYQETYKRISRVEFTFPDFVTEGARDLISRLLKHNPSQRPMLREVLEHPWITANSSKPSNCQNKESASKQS

[3] = Clearance in Sprague-Dawley rat at 1 mg/kg, iv; assay type: ADME, organism-based; design: dose 1 mg/kg, route intravenous; conditions: in vivo
[4] = AUC in Sprague-Dawley rat at 1 mg/kg, iv; assay type: ADME, organism-based; design: dose 1 mg/kg, route intravenous; conditions: plasma
[5] = Half life in Sprague-Dawley rat at 1 mg/kg, iv; assay type: ADME, organism-based; design: dose 1 mg/kg, route intravenous; conditions: in vivo
[6] = Volume of distribution in Sprague-Dawley rat at 1 mg/kg, iv; assay type: ADME, organism-based; design: dose 1 mg/kg, route intravenous; conditions: in vivo
Aurora kinase C = molecular target: T3, Aurora kinase C (Homo sapiens, UniProt Q9UQB9); assay: Binding affinity to Aurora C kinase catalytic domain by competitive binding assay
T3 sequence (Q9UQB9 whole entry): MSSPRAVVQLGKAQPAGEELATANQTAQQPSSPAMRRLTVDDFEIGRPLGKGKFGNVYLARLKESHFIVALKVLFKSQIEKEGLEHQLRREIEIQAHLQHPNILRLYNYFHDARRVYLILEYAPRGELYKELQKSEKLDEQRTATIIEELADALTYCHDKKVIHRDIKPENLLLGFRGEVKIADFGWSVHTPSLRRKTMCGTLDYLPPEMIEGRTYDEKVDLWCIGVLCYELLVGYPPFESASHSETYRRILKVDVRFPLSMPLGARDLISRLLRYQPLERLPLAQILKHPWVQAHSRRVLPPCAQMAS

T1 sequence (Q96GD4 whole entry, the tested form may be a part): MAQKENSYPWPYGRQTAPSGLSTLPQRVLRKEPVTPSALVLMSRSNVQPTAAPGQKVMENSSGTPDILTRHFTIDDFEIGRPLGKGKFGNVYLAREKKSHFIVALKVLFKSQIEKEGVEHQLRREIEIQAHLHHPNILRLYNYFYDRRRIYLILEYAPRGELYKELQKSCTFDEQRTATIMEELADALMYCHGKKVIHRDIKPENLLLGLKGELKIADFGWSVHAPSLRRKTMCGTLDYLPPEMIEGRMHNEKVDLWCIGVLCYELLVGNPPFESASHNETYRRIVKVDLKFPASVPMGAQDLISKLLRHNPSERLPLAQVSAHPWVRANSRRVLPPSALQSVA

Compound | IC50 (Aurora kinase B [1]) [nM] | Kd (Aurora kinase B [2]) [nM] | IC50 (HCT-116) [nM] | Kd (Aurora kinase A) [nM] | clearance [3] [mL/min/kg] | AUC [4] [µM·h] | half-life [5] [h] | Vd [6] [L/kg] | Kd (Aurora kinase C) [nM]
Cc1cc(Nc2nc(Sc3ccc(NC(=O)CN4C[C@H](SC(C)(C)C)C[C@H]4CO)cc3)nn3cccc23)n[nH]1 | 1790 | 39 | 1610 | 111 |  |  |  |  | 
Cc1cc(Nc2nc(Sc3ccc(NC(=O)CN4C[C@H](O)C[C@H]4CO)cc3)nn3cccc23)n[nH]1 | 637 | 15 | 596 | 58 |  |  |  |  | 
Cc1cc(Nc2nc(Sc3ccc(NC(=O)CN4C[C@H](OC(C)(C)C)[C@@H](O)C4)cc3)nn3cccc23)n[nH]1 | 16 | 5 | 4 | 12 | 45 | 0.644 | 11.2 | 18.3 | 
Cc1cc(Nc2nc(Sc3ccc(NC(=O)CN4CC(=NO)[C@@H](OC(C)(C)C)C4)cc3)nn3cccc23)n[nH]1 (mixture of isomers) | 28 | 5 | 8 | 9 |  |  |  |  | 
Cc1cc(Nc2nc(Sc3ccc(NC(=O)CN4CCOCC4)cc3)nn3cccc23)n[nH]1 | 1830 | 41 | 1840 | 85 |  |  |  |  | 17
Cc1cc(Nc2nc(Sc3ccc(NC(=O)CN4C[C@H](OC(C)(C)C)C[C@@H]4CO)cc3)nn3cccc23)n[nH]1 | 2490 | 69 | 2390 | 301 |  |  |  |  | 
Cc1cc(Nc2nc(Sc3ccc(NC(=O)CN4C[C@H](Oc5cc(F)cc(F)c5)[C@@H](O)C4)cc3)nn3cccc23)n[nH]1 | 51 | 21 | 7 | 26 |  |  |  |  | 
Cc1cc(Nc2nc(Sc3ccc(NC(=O)CN4C[C@@H](O)[C@@H](Oc5ccc(F)cc5)C4)cc3)nn3cccc23)n[nH]1 | 84 | 8 | 9 | 7 |  |  |  |  | 
Cc1cc(Nc2nc(Sc3ccc(NC(=O)CNC4CC4)cc3)nn3cccc23)n[nH]1 | 288 | 41 | 364 | 32 |  |  |  |  | 6
Cc1cc(Nc2nc(Sc3ccc(NC(=O)CN4C[C@H]5C[C@H]5[C@H]4CO)cc3)nn3cccc23)n[nH]1 | 179 | 15 | 203 | 17 |  |  |  |  | 
Cc1cc(Nc2nc(Sc3ccc(NC(=O)CN4C[C@H](F)C[C@H]4CO)cc3)nn3cccc23)n[nH]1 | 91 | 9 | 104 | 15 |  |  |  |  | 
Cc1cc(Nc2nc(Sc3ccc(NC(=O)C4CC4)cc3)nn3cccc23)n[nH]1 | 431 | 20 | 345 | 12 | 28.5 | 2.34 | 10.8 | 2.15 | 4
Cc1cc(Nc2nc(Sc3ccc(NC(=O)C4CC4)cc3)nn3cc(NC(=O)N4CCN(C)CC4)cc23)n[nH]1 | 190 | 4 | 75 | 7 | 53.3 | 0.757 | 8.66 | 5.86 | 5
Cc1cc(Nc2nc(Sc3ccc(NC(=O)CN4C[C@H](O)[C@@H](F)C4)cc3)nn3cccc23)n[nH]1 | 47 | 1 | 33 | 5 |  |  |  |  | 
Cc1cc(Nc2nc(Sc3ccc(NC(=O)CN4C[C@H](Oc5ccc(F)cc5)C[C@H]4CO)cc3)nn3cccc23)n[nH]1 | 78 | 21 | 24 | 53 |  |  |  |  | 
Cc1cc(Nc2nc(Sc3ccc(NC(=O)CN4CC(F)(F)C[C@H]4CO)cc3)nn3cccc23)n[nH]1 | 29 | 5 | 25 | 8 |  |  |  |  | 2
Cc1cc(Nc2nc(Sc3ccc(NC(=O)CN4C[C@H](OCC5CC5)[C@@H](O)C4)cc3)nn3cccc23)n[nH]1 | 23 | 2 | 10 | 7 |  |  |  |  | 
Cc1cc(Nc2nc(Sc3ccc(NC(=O)CN4C[C@@H](F)C[C@H]4CO)cc3)nn3cccc23)n[nH]1 | 28 | 4 | 25 | 8 |  |  |  |  | 

— ChEMBL document CHEMBL1821662 (Bioorg Med Chem Lett, 2011)
